Laboratory results as given in patent publication US10829833B2, “Biological processing of scrap metal, household waste and/or industrial waste for the isolation of heavy metals” (B.R.A.I.N. Biotechnology Research and Information Network AG, priority 2015, dated 2020).

Experiments:
Test in all cases: Microbial growth on agar plates with different concentrations of AgNO3 or HAuCl4
Assay type in all cases: cell-based
Set-up in all cases: key: x = growth; (x) = weak growth
Conditions in all cases: agar plate
[1] = tested on: Cupriavidus metallidurans
Excerpt: (§1) To investigate the tolerated concentration of silver and gold, the microorganisms were propagated in liquid medium and streaked on agar plates with different concentrations of AgNO3 or HAuCl4, respectively.

Bacillus sphaericus = tested on: Bacillus sphaericus
Excerpt: as §1

Escherichia coli = tested on: Escherichia coli
Excerpt: as §1

Xanthomonas campestris = tested on: Xanthomonas campestris
Excerpt: as §1

[Au+3].[Cl-].[Cl-].[Cl-].[Cl-].[H+] [HAuCl4]
Microbial growth in dependence on HAuCl4 concentration ([1]; HAuCl4 2 μM): x
Microbial growth in dependence on HAuCl4 concentration ([1]; HAuCl4 20 μM): x
Microbial growth in dependence on HAuCl4 concentration ([1]; HAuCl4 100 μM): x
Microbial growth in dependence on HAuCl4 concentration ([1]; HAuCl4 200 μM): x
Microbial growth in dependence on HAuCl4 concentration ([1]; HAuCl4 300 μM): x
Microbial growth in dependence on HAuCl4 concentration ([1]; HAuCl4 400 μM): x
Microbial growth in dependence on HAuCl4 concentration ([1]; HAuCl4 500 μM): x
Microbial growth in dependence on HAuCl4 concentration (Bacillus sphaericus; HAuCl4 2 μM): x
Microbial growth in dependence on HAuCl4 concentration (Bacillus sphaericus; HAuCl4 20 μM): x
Microbial growth in dependence on HAuCl4 concentration (Bacillus sphaericus; HAuCl4 100 μM): x
Microbial growth in dependence on HAuCl4 concentration (Bacillus sphaericus; HAuCl4 200 μM): x
Microbial growth in dependence on HAuCl4 concentration (Escherichia coli; HAuCl4 2 μM): x
Microbial growth in dependence on HAuCl4 concentration (Escherichia coli; HAuCl4 20 μM): x
Microbial growth in dependence on HAuCl4 concentration (Escherichia coli; HAuCl4 100 μM): x
Microbial growth in dependence on HAuCl4 concentration (Escherichia coli; HAuCl4 200 μM): x
Microbial growth in dependence on HAuCl4 concentration (Escherichia coli; HAuCl4 300 μM): x
Microbial growth in dependence on HAuCl4 concentration (Xanthomonas campestris; HAuCl4 2 μM): x
Microbial growth in dependence on HAuCl4 concentration (Xanthomonas campestris; HAuCl4 20 μM): x
Microbial growth in dependence on HAuCl4 concentration (Xanthomonas campestris; HAuCl4 100 μM): x
Microbial growth in dependence on HAuCl4 concentration (Xanthomonas campestris; HAuCl4 200 μM): x
Microbial growth in dependence on HAuCl4 concentration (Xanthomonas campestris; HAuCl4 300 μM): x

O=[N+]([O-])[O-].[Ag+] [AgNO3]
Microbial growth in dependence on AgNO3 concentration ([1]; AgNO3 2 μM): x
Microbial growth in dependence on AgNO3 concentration ([1]; AgNO3 10 μM): x
Microbial growth in dependence on AgNO3 concentration ([1]; AgNO3 20 μM): x
Microbial growth in dependence on AgNO3 concentration ([1]; AgNO3 50 μM): x
Microbial growth in dependence on AgNO3 concentration ([1]; AgNO3 100 μM): x
Microbial growth in dependence on AgNO3 concentration ([1]; AgNO3 150 μM): x
Microbial growth in dependence on AgNO3 concentration ([1]; AgNO3 200 μM): (x)
Microbial growth in dependence on AgNO3 concentration (Bacillus sphaericus; AgNO3 2 μM): x
Microbial growth in dependence on AgNO3 concentration (Bacillus sphaericus; AgNO3 10 μM): x
Microbial growth in dependence on AgNO3 concentration (Bacillus sphaericus; AgNO3 20 μM): x
Microbial growth in dependence on AgNO3 concentration (Bacillus sphaericus; AgNO3 50 μM): x
Microbial growth in dependence on AgNO3 concentration (Bacillus sphaericus; AgNO3 100 μM): x
Microbial growth in dependence on AgNO3 concentration (Bacillus sphaericus; AgNO3 150 μM): x
Microbial growth in dependence on AgNO3 concentration (Escherichia coli; AgNO3 2 μM): x
Microbial growth in dependence on AgNO3 concentration (Escherichia coli; AgNO3 10 μM): x
Microbial growth in dependence on AgNO3 concentration (Escherichia coli; AgNO3 20 μM): x
Microbial growth in dependence on AgNO3 concentration (Escherichia coli; AgNO3 50 μM): x
Microbial growth in dependence on AgNO3 concentration (Escherichia coli; AgNO3 100 μM): x
Microbial growth in dependence on AgNO3 concentration (Xanthomonas campestris; AgNO3 2 μM): x
Microbial growth in dependence on AgNO3 concentration (Xanthomonas campestris; AgNO3 10 μM): x
Microbial growth in dependence on AgNO3 concentration (Xanthomonas campestris; AgNO3 20 μM): x
Microbial growth in dependence on AgNO3 concentration (Xanthomonas campestris; AgNO3 50 μM): x
Microbial growth in dependence on AgNO3 concentration (Xanthomonas campestris; AgNO3 100 μM): x
